From PubChem BioAssay (NCI)
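96-well plates; 48 h exposure; 5 concentrations. Endpoints by linear interpolation between flanking doses. Not reached: highest tested concentration assigned. GI50 = concentration required for 50% inhibition of growth. Definition used: TGI = concentration required for complete inhibition of growth.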

Experiments:
Experiment in all cases: NCI anticancer screen, dose series, 48 h
[1] = test system: OVCAR-8 ovarian
[2] = test system: MOLT-4 leukemia
[3] = test system: K-562 leukemia
[4] = test system: SK-MEL-5 melanoma
[5] = test system: UACC-62 melanoma
[6] = test system: SW-620 colon
[7] = test system: COLO 205 colon
[8] = test system: U251 CNS
[9] = test system: CCRF-CEM leukemia
[10] = test system: RPMI-8226 leukemia

| Structure (SMILES) | TGI [1] [µM] | TGI [2] [µM] | TGI [3] [µM] | TGI [4] [µM] | TGI [5] [µM] | TGI [6] [µM] | TGI [7] [µM] | TGI [8] [µM] | TGI [9] [µM] | TGI [10] [µM] | GI50 [10] [µM] | GI50 [1] [µM] | GI50 [2] [µM] | GI50 [3] [µM] | GI50 [4] [µM] | GI50 [5] [µM] | GI50 [6] [µM] | GI50 [7] [µM] | GI50 [8] [µM] | GI50 [9] [µM] |
| --- | --- | --- | --- | --- | --- | --- | --- | --- | --- | --- | --- | --- | --- | --- | --- | --- | --- | --- | --- | --- |
| NNc1ncnc2cccc(Cl)c12 | > 100 | > 100 | > 100 | > 100 | > 100 | > 100 | > 100 | > 100 | > 100 |  |  |  |  |  |  |  |  |  |  |  |
| CCCCC1N=CNc2c1ccc1c2[nH]c2ccccc21 (stereo not given) |  | 6.51 | 5.4 | 2.95 | 8.94 | 3.55 | 3.27 | 16.5 | 5.89 | 5.13 |  |  |  |  |  |  |  |  |  |  |
| Cn1cc(-c2ccc3nnc(C(F)(F)c4ccc5ncccc5c4)n3n2)cn1 | > 100 | > 100 | > 100 | > 100 | > 100 | > 100 | > 100 | > 100 | > 100 | > 100 | 88.6 | 66.1 | 52.5 | 78.1 | 43.2 | 66.1 | > 95.8 | 59.6 | 58.4 | 98.7 |
| O=C(O)CCCc1cc2c(s1)-c1cccc3cccc-2c13 | > 100 | 60.8 | > 100 |  | 47.2 | > 100 | 42.3 | 53.8 |  | 72.5 |  |  |  |  |  |  |  |  |  |  |
| C[C@H]1CCC2C(CN3CCCCC3)C(=O)OC2[C@]2(C)C(=O)CC(N3CCCCC3)C12O (stereo not given in full) |  | 10.9 | 39.2 | 16.3 | 5.92 | 10.3 | 18.6 | 24.5 | 10.1 |  |  |  |  |  |  |  |  |  |  |  |
| COC(=O)C1=Cc2cn(S(=O)(=O)c3ccc(C)cc3)c3cccc(c23)C(C=C(C)C)N1C(C)=O (stereo not given) | > 100 | 44.9 | > 100 | > 100 | > 100 | > 100 | 18.3 | > 100 | 77.4 |  |  |  |  |  |  |  |  |  |  |  |
| O=C1CCCCCCCCCCOC(=O)CCCCCCCCCCO1 | > 100 |  | > 100 | > 100 | > 100 | > 100 | > 100 | > 100 | > 100 |  |  |  |  |  |  |  |  |  |  |  |
| CC(C)(N)C(=O)N[C@@H]1C(=O)N2[C@@H]1SC(C)(C)[C@@H]2C(=O)O | > 100 |  | > 100 | > 100 | > 100 | > 100 | > 100 | > 100 |  | > 100 |  |  |  |  |  |  |  |  |  |  |
| CSc1nc(SC)c2c(C)cn(C3OC(C)C(O)C(O)C3O)c2n1 (stereo not given) | > 100 | > 100 |  | > 100 | > 100 | > 100 | > 100 | > 100 | > 100 | > 100 |  |  |  |  |  |  |  |  |  |  |
| NC(CSC1(c2ccc(Cl)cc2)c2ccccc2-c2ccccc21)C(=O)O (stereo not given) | 38.7 | 71.5 | > 100 | 30.6 | 34.4 | > 100 | 28.9 | 29.6 | > 100 | > 100 |  |  |  |  |  |  |  |  |  |  |
| Cc1cc(C)c(C2=NO[C@@H]3C(=O)N(c4ccc(Cc5ccc(N6C(=O)[C@H]7C(c8c(C)cc(C)cc8C)=NO[C@H]7C6=O)cc5)cc4)C(=O)[C@H]23)c(C)c1 | > 100 | > 100 | > 100 | > 100 | > 100 | > 100 | > 100 |  | > 100 | > 100 |  |  |  |  |  |  |  |  |  |  |
| Cn1c(=O)c(-c2c(Cl)cccc2Cl)cc2cnc(Nc3ccc(I)cc3)nc21 | > 100 | 0.787 | < 0.01 | 0.157 | 1.28 | 2.49 | 0.324 | 13.6 | > 100 | 0.0785 | < 0.0118 | 1.52 | 0.0174 | < 0.01 | < 0.0104 | 0.301 | 0.0188 | 0.0458 | 0.305 | 0.0224 |
| C=CNC(=S)n1nc(-c2ccccc2NC(=O)C(F)(F)F)c(=O)n(C(=S)NC=C)c1=S | > 100 | > 100 | > 100 | 35.5 | > 100 | > 100 |  | > 100 | > 100 |  |  |  |  |  |  |  |  |  |  |  |
| O=C(CC1(O)C(=O)Nc2ccc([N+](=O)[O-])cc21)c1ccc(Br)cc1 (stereo not given) | > 100 | > 100 | > 100 |  | > 100 |  | > 100 | 51 | > 100 | > 100 |  |  |  |  |  |  |  |  |  |  |
| O=[N+]([O-])c1cccc([I+]c2ccccc2)c1 | 17.6 | 39 | 32.1 | 10.8 |  | 26.7 | 33.6 | 20.3 | 90.7 | 30.7 | 4.09 | 4.37 | 3.4 | 3.26 | 2.27 |  | 6.42 | 10.1 | 6.39 | 5.27 |
| COc1cc(=O)oc(/C=C/CO)c1C | > 100 | > 100 | > 100 | > 100 | > 100 | > 100 | > 100 | > 100 | > 100 |  |  |  |  |  |  |  |  |  |  |  |
| CN(CC1NCCCC1O)C12CC3CC(CC(C3)C1)C2 (stereo not given) | > 100 | > 100 | > 100 |  | > 100 | > 100 | > 100 | > 100 | > 100 | > 100 |  |  |  |  |  |  |  |  |  |  |
| Cc1cc2c(C)nn(Cc3ccccc3Cl)c2c(C#N)c1C | > 100 | > 100 |  |  | > 100 | > 100 | > 100 | > 100 | > 100 | > 100 |  |  |  |  |  |  |  |  |  |  |
| COc1cc(/C=C2\CC3C4CCC5=CC(=O)CC[C@]5(C)C4CC[C@]3(C)C2=O)ccc1OCCN1CCCCC1 (stereo not given in full) | 62.5 | 75.2 | 16.6 | 3.09 | 5.84 | 11.7 | 35.2 | 11.2 |  | 5.05 | 1.88 | 15.9 | 2.73 | 2.8 | 1.51 | 2.39 | 2.93 | 5.34 | 3.2 |  |
